What was measured:
cocklebur = experiment: Test B pre/postemergence cocklebur; assay type: in vivo, Xanthium strumarium
Procedure, shortened: (§1)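 Response is a visual 0-to-10 score relative to untreated plants, where 0 means no effect and 10 means complete control, taken twelve to sixteen days after application. Treatments went onto soil at planting and onto foliage of 1- to 4-leaf plants, using a surfactant-containing non-phytotoxic solvent.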

wild oat = experiment: Test B pre/postemergence wild oat; assay type: in vivo, Avena fatua
Procedure, shortened: as §1

bedstraw = experiment: Test B pre/postemergence bedstraw; assay type: in vivo, Galium aparine
Procedure, shortened: as §1

giant foxtail = experiment: Test B pre/postemergence giant foxtail; assay type: in vivo, Setaria faberii
Procedure, shortened: as §1

duck salad = experiment: Test B flood test duck salad; assay type: in vivo, Heteranthera limosa
Procedure, shortened: (§2)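 Flood test on plants grown to the 2-leaf stage; treated plants kept in greenhouse twelve to sixteen days, then visually rated against controls on a 0 (no effect) to 10 (complete control) scale.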

rice = experiment: Test B flood test rice; assay type: in vivo, Oryza sativa
Procedure, shortened: as §2

wheat = experiment: Test B pre/postemergence wheat; assay type: in vivo, Triticum aestivum
Procedure, shortened: as §1

sugar beet = experiment: Test B pre/postemergence sugar beet; assay type: in vivo, Beta vulgaris
Procedure, shortened: as §1

rape = experiment: Test B pre/postemergence rape; assay type: in vivo, Brassica napus
Procedure, shortened: as §1

pigweed = experiment: Test B pre/postemergence pigweed; assay type: in vivo, Amaranthus retroflexus
Procedure, shortened: as §1

purple nutsedge = experiment: Test B pre/postemergence purple nutsedge; assay type: in vivo, Cyperus rotundus
Procedure, shortened: as §1

smallflower flatsedge = experiment: Test B flood test smallflower flatsedge; assay type: in vivo, Cyperus difformis
Procedure, shortened: as §2

soybean = experiment: Test B pre/postemergence soybean; assay type: in vivo, Glycine max
Procedure, shortened: as §1

velvetleaf = experiment: Test B pre/postemergence velvetleaf; assay type: in vivo, Abutilon theophrasti
Procedure, shortened: as §1

surinam grass = experiment: Test B pre/postemergence surinam grass; assay type: in vivo, Brachiaria decumbens
Procedure, shortened: as §1

corn = experiment: Test B pre/postemergence corn; assay type: in vivo, Zea mays
Procedure, shortened: as §1

[1] = Preemergence, Rate 62 g/ha, scale of 0 to 10 where 0 is no effect and 10 is complete control
[2] = Preemergence, Rate 250 g/ha, scale of 0 to 10 where 0 is no effect and 10 is complete control
[3] = Preemergence, Rate 500 g/ha, scale of 0 to 10 where 0 is no effect and 10 is complete control
[4] = Rate 62 g/ha, Postemergence, scale 0 to 10 (0 no effect, 10 complete control)
[5] = Rate 125 g/ha, Postemergence, scale of 0 to 10 where 0 is no effect and 10 is complete control
[6] = Rate 125 g/ha, Preemergence, scale of 0 to 10 where 0 is no effect and 10 is complete control
[7] = Rate 250 g/ha, Postemergence, scale of 0 to 10 where 0 is no effect and 10 is complete control
[8] = Rate 500 g/ha, Postemergence, scale 0 to 10, 0 no effect, 10 complete control
[9] = Rate 62 g/ha, headed Pre-emergence (flood test species), scale 0 to 10 (0 no effect, 10 complete control)
[10] = Rate 125 g/ha, Pre-emergence, flood test species, scale 0 to 10 where 0 is no effect and 10 is complete control
[11] = Rate 250 g/ha, Pre-emergence, flood-test species, scale 0 to 10, 0 is no effect, 10 is complete control
[12] = Rate 500 g/ha, Pre-emergence, flood test species, scale 0 to 10 (0 no effect, 10 complete control)

CCN(CC)C(=O)n1oc(=O)n(C2CC2)c1=O [Compound 297]
Cocklebur plant response rating (cocklebur; [1]): 0 | Cocklebur plant response rating (cocklebur; [2]): 0 | Plant response rating, Cocklebur (cocklebur; [3]): 0 | Cocklebur plant response rating (cocklebur; [4]): 0 | Cocklebur plant response rating (cocklebur; [5]): 0 | Cocklebur plant response rating (cocklebur; [6]): 0 | Plant response rating, Cocklebur (cocklebur; [7]): 0 | Cocklebur plant response rating (cocklebur; [8]): 0 | Wild oats plant response rating (wild oat; [1]): 0 | Wild oats plant response rating (wild oat; [2]): 0 | Plant response rating, Wild oats (wild oat; [3]): 0 | Wild oats plant response rating (wild oat; [4]): 0 | Wild oats plant response rating (wild oat; [5]): 0 | Plant response rating, Wild oats (wild oat; [7]): 0 | Bedstraw plant response rating (bedstraw; [2]): 0 | Plant response rating, Bedstraw (bedstraw; [3]): 0 | Bedstraw plant response rating (bedstraw; [4]): 0 | Bedstraw plant response rating (bedstraw; [5]): 0 | Bedstraw plant response rating (bedstraw; [6]): 0 | Giant foxtail plant response rating (giant foxtail; [1]): 0 | Giant foxtail plant response rating (giant foxtail; [2]): 7 | Plant response rating, Giant foxtail (giant foxtail; [3]): 7 | Giant foxtail plant response rating (giant foxtail; [4]): 0 | Giant foxtail plant response rating (giant foxtail; [5]): 0 | Giant foxtail plant response rating (giant foxtail; [6]): 0 | Plant response rating, Giant foxtail (giant foxtail; [7]): 0 | Ducksalad plant response rating (duck salad; [9]): 0 | Ducksalad plant response rating (duck salad; [10]): 0 | Ducksalad plant response rating (duck salad; [11]): 0 | Ducksalad plant response rating (duck salad; [12]): 0 | Rice plant response rating (rice; [9]): 0 | Rice plant response rating (rice; [10]): 0 | Rice plant response rating (rice; [11]): 0 | Rice plant response rating (rice; [12]): 0 | Wheat plant response rating (wheat; [1]): 0 | Wheat plant response rating (wheat; [2]): 0 | Plant response rating, Wheat (wheat; [3]): 0 | Wheat plant response rating (wheat; [4]): 0 | Wheat plant response rating (wheat; [5]): 0 | Wheat plant response rating (wheat; [6]): 0 | Plant response rating, Wheat (wheat; [7]): 0 | Sugarbeets plant response rating (sugar beet; [1]): 0 | Sugarbeets plant response rating (sugar beet; [2]): 0 | Plant response rating, Sugarbeets (sugar beet; [3]): 0 | Sugarbeets plant response rating (sugar beet; [4]): 0 | Sugarbeets plant response rating (sugar beet; [5]): 0 | Sugarbeets plant response rating (sugar beet; [6]): 0 | Plant response rating, Sugarbeets (sugar beet; [7]): 0 | Rape plant response rating (rape; [1]): 0 | Rape plant response rating (rape; [2]): 0 | Plant response rating, Rape (rape; [3]): 0 | Rape plant response rating (rape; [4]): 0 | Rape plant response rating (rape; [5]): 0 | Rape plant response rating (rape; [6]): 0 | Plant response rating, Rape (rape; [7]): 0 | Redroot pigweed plant response rating (pigweed; [1]): 0 | Redroot pigweed plant response rating (pigweed; [2]): 0 | Plant response rating, Redroot pigweed (pigweed; [3]): 0 | Redroot pigweed plant response rating (pigweed; [4]): 0 | Redroot pigweed plant response rating (pigweed; [5]): 0 | Redroot pigweed plant response rating (pigweed; [6]): 0 | Plant response rating, Redroot pigweed (pigweed; [7]): 0 | Nutsedge plant response rating (purple nutsedge; [2]): 0 | Plant response rating, Nutsedge (purple nutsedge; [3]): 0 | Nutsedge plant response rating (purple nutsedge; [4]): 0 | Nutsedge plant response rating (purple nutsedge; [5]): 0 | Nutsedge plant response rating (purple nutsedge; [6]): 0 | Plant response rating, Nutsedge (purple nutsedge; [7]): 0 | S. Flatsedge plant response rating (smallflower flatsedge; [9]): 0 | S. Flatsedge plant response rating (smallflower flatsedge; [10]): 0 | S. Flatsedge plant response rating (smallflower flatsedge; [11]): 3 | S. Flatsedge plant response rating (smallflower flatsedge; [12]): 3 | Soybean plant response rating (soybean; [1]): 0 | Soybean plant response rating (soybean; [2]): 0 | Plant response rating, Soybean (soybean; [3]): 0 | Soybean plant response rating (soybean; [4]): 2 | Soybean plant response rating (soybean; [5]): 3 | Soybean plant response rating (soybean; [6]): 0 | Plant response rating, Soybean (soybean; [7]): 3 | Velvetleaf plant response rating (velvetleaf; [1]): 0 | Velvetleaf plant response rating (velvetleaf; [2]): 0 | Plant response rating, Velvetleaf (velvetleaf; [3]): 0 | Velvetleaf plant response rating (velvetleaf; [4]): 0 | Velvetleaf plant response rating (velvetleaf; [5]): 0 | Velvetleaf plant response rating (velvetleaf; [6]): 0 | Plant response rating, Velvetleaf (velvetleaf; [7]): 0 | B. signalgrass plant response rating (surinam grass; [1]): 0 | B. signalgrass plant response rating (surinam grass; [2]): 0 | Plant response rating, B. signalgrass (surinam grass; [3]): 0 | B. signalgrass plant response rating (surinam grass; [4]): 0 | B. signalgrass plant response rating (surinam grass; [5]): 0 | B. signalgrass plant response rating (surinam grass; [6]): 0 | Plant response rating, B. signalgrass (surinam grass; [7]): 0 | B. signalgrass plant response rating (surinam grass; [8]): 0 | Corn plant response rating (corn; [1]): 0 | Corn plant response rating (corn; [2]): 0 | Plant response rating, Corn (corn; [3]): 0 | Corn plant response rating (corn; [4]): 0 | Corn plant response rating (corn; [5]): 0 | Corn plant response rating (corn; [6]): 0 | Plant response rating, Corn (corn; [7]): 0 | Corn plant response rating (corn; [8]): 0
